Data published in US11673889B2, “Substituted imidazo[4,5-c][1,8]naphthyridines as phosphodiesterase inhibitors” (Nanjing Zhengxiang Pharmaceuticals Co., Ltd., priority 2019, dated 2023).

Tests used:
ENPP-1, MDA-MB-231 cells = biological target: T1, ENPP-1, MDA-MB-231 cells (Homo sapiens, UniProt P22413); experiment: cell-based; settings: for inhibition at 20 µM: MDA-MB-231, read-out: % Inhibition (at 20 μM)
T1 sequence (P22413 1-925): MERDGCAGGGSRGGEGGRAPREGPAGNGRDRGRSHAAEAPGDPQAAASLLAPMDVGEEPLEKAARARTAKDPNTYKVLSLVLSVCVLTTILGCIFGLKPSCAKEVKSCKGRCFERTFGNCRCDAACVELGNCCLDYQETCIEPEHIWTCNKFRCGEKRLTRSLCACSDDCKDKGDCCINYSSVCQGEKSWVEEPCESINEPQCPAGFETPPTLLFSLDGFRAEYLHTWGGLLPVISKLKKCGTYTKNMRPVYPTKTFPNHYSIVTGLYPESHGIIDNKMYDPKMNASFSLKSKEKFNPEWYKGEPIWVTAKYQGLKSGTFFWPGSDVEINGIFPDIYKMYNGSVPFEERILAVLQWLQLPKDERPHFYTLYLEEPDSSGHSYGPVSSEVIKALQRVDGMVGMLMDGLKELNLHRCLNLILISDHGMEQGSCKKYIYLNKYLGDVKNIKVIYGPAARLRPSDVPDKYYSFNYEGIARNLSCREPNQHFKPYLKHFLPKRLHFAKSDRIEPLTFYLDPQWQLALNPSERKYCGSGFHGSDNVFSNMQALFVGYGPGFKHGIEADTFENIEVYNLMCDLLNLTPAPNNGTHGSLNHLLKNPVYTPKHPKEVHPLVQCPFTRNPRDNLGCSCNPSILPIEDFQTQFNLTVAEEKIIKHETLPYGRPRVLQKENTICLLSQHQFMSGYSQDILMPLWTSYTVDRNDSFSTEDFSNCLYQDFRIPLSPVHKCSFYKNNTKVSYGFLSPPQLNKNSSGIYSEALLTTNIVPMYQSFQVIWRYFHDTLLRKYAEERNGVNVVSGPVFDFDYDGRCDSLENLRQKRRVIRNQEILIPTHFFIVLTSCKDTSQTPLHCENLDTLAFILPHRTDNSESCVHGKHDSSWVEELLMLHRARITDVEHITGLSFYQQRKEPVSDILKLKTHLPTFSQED
Experimental: ENPP-1 were mainly expressed on the surface of cell membrane where it hydrolytes 2′3′-cGAMP to generate 5′-GMP and 5′-AMP. ENPP-1 also has the ability to hydrolyzes artificial phosphoric acid ester TMP-pNP to nucleotide-5′-monophosphate and p-nitrophcnol there, which is a chromogenic product.
8 point of different concentrations of each inhibitor were prepared with the final assay concentrations starting at 20 μM. 3× series dilution by DMEM medium without FBS was applied. Prior to adding inhibitors, 75000 cells per well were incubated at 37° C., 5% CO2 in DMEM for 24 hours. After removing the supernatant medium, 50 μL inhibitor solution was added into each well with cultured cells and incubate at 37° C., 5% CO2 for 60 minutes.
(§1) The IC50 values for percent inhibition versus compound concentration are determined by fitting the inhibition curves using a four-parameter variable slope model in GraphPad Prism® 8.

human soluble ENPP1 [1] = biological target: T2, human soluble ENPP1 (Homo sapiens, UniProt P22413); experiment: ENPP1 activity assay using p-Nitrophenyl-5′-TMP as a substrate; format: biochemical
T2 construct: 20 ng of human soluble ENPP1
T2 sequence (P22413 103-925 limits assumed): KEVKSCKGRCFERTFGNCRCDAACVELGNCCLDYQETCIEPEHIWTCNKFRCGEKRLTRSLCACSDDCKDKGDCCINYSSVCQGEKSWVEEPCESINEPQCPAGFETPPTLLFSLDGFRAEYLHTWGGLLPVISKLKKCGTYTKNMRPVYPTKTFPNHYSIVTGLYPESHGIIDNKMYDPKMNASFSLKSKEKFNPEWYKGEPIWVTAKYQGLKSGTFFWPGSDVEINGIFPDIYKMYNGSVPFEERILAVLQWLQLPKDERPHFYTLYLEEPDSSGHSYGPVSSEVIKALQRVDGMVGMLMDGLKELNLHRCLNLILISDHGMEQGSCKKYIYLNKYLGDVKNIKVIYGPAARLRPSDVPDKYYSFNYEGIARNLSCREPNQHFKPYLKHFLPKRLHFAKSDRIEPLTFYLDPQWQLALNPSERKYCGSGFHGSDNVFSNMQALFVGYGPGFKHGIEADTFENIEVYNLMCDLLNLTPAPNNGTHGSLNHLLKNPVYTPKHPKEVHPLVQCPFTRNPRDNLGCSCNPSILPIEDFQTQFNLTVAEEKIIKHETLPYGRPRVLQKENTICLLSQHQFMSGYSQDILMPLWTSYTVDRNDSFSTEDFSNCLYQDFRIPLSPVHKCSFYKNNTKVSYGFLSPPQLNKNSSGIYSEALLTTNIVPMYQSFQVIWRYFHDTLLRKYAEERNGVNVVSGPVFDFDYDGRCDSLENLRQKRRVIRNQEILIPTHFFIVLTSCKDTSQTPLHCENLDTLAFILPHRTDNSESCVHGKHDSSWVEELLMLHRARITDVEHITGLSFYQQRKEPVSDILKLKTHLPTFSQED
Experimental: ENPP1 is a transmembrane glycoprotein that hydrolyzes nucleotides and nucleotide derivatives with the formation of nucleotide-5′-monophosphates. ENPP1 hydrolyzes artificial phosphoric acid ester thymidine 5′monophosphate p-nitrophenyl ester (TMP-pNP) to nucleotide-5′-monophosphate and p-nitrophenol, which is a chromogenic product.
Load into a well with 20 ng of human soluble ENPP1 in 50 μL and incubate at room temperature with 25 μL inhibitor solution (4× Final Concentration) for 30 mins. Then, add 25 μL 2 mM TMP solution (2× Final Concentration) into the well, Incubate at RT for 1 hour.
(§2) The percent inhibition at each compound is calculated as follows: % inhibition=(ODMAX−ODCOMPOUND)/(ODMAX−ODMIN)*100. (MAX: absence of ENPP1 inhibitors control, MIN: blank control.)
The IC50 values for percent inhibition versus compound concentration were determined by fitting the inhibition curves using a four-parameter variable slope model in GraphPad Prism® 8.

human soluble ENPP1 [2] = biological target: T2, human soluble ENPP1; experiment: ENPP1 activity assay using p-Nitrophenyl-5′-AMP as a substrate; format: biochemical
Experimental: AMP-pNP can be used as substrate of ENPP-1. Its hydrolysis products were nucleotide-5′-monophosphate and p-nitrophcnol, which is also a chromogenic product. The amount of p-nitrophenol product formed is measured using its absorbance at 405 nm, which is directly proportional to enzyme activity.
Load into a well with […] of human soluble ENPP1 in 50 μL and incubate at room temperature with 25 μL inhibitor solution (4× Final Concentration) for 30 mins prior adding 25 μL 3 mM AMP solution (2× Final Concentration) into the well, Incubate at RT for 1 hour. The amounts of released p-nitrophenolate were measured by reading OD value at 405 nm.
as §2, §1

[3] = substrate TMP-pNP, 20 ng human soluble ENPP1, Tris buffer pH 9.5, read-out: TMP-pNP (IC50)

| IC50 (ENPP-1, MDA-MB-231 cells) [nM] | inhibition at 20 µM (ENPP-1, MDA-MB-231 cells) [%] | IC50 (human soluble ENPP1 [1]) [nM] | IC50 (human soluble ENPP1 [2]) [nM] | IC50 (human soluble ENPP1 [1]; [3]) [nM] | SMILES |
| --- | --- | --- | --- | --- | --- |
| 80 | 88 | 0.66 | 1.4 |  | COc1ccc2c(ncc3cnn(Cc4ccc(S(N)(=O)=O)cn4)c32)n1 [Compound 135a, 6-((7-methoxy-1H-pyrazolo[4,3-c][1,8]naphthyridin-1-yl)methyl)pyridine-3-sulfonamide] |
| 2400 | 76 | 0.67 | 1.1 |  | COc1ccc2c(ncc3[nH]c(=O)n([C@H](C)c4ccc(S(N)(=O)=O)cc4)c32)n1 [Compound 101, (R)-4-(1-(7-methoxy-2-oxo-2,3-dihydro-1H-imidazo[4,5-c][1,8]naphthyridin-1-yl)ethyl)benzenesulfonamide] |
| 2700 | 74 | 3.4 | 8.8 |  | COc1ccc2c(n1)nc(C)c1nc(CO)n(Cc3cc(F)c(S(N)(=O)=O)cc3F)c12 [Compound 94, 2,5-difluoro-4-((2-(hydroxymethyl)-7-methoxy-4-methyl-1H-imidazo[4,5-c][1,8]naphthyridin-1-yl)methyl)benzenesulfonamide] |
| 9.6 | 86 | 19 | 56 |  | COc1ccc2c(ncc3[nH]c(=O)n(Cc4c(F)cc(P(=O)(O)O)cc4F)c32)n1 [Compound 124, (3,5-difluoro-4-((7-methoxy-2-oxo-2,3-dihydro-1H-imidazo[4,5-c][1,8]naphthyridin-1-yl)methyl)phenyl)phosphonic acid] |
| 1400 | 75 |  | 4.6 | 1.4 | COc1ccc2c(ncc3[nH]c(=O)n(Cc4ccc(S(N)(=O)=O)c(F)c4F)c32)n1 [Compound 95, 2,3-difluoro-4-((7-methoxy-2-oxo-2,3-dihydro-1H-imidazo[4,5-c][1,8]naphthyridin-1-yl)methyl)benzenesulfonamide] |
| 3800 | 62 |  | 3 | 0.6 | COc1ccc2c(ncc3[nH]c(=O)n(Cc4ccc(S(N)(=O)=O)c(F)c4)c32)n1 [Compound 98, 2-fluoro-4-((7-methoxy-2-oxo-2,3-dihydro-1H-imidazo[4,5-c][1,8]naphthyridin-1-yl)methyl)benzenesulfonamide] |

Further lines, the compound ahead of its results:

| SMILES | IC50 (ENPP-1, MDA-MB-231 cells) [nM] | inhibition at 20 µM (ENPP-1, MDA-MB-231 cells) [%] | IC50 (human soluble ENPP1 [1]) [nM] | IC50 (human soluble ENPP1 [2]) [nM] | IC50 (human soluble ENPP1 [1]; [3]) [nM] |
| --- | --- | --- | --- | --- | --- |
| COc1ccc2c(ncc3[nH]c(=O)n(Cc4c(F)cc(S(=O)(=O)NC(C)=O)cc4F)c32)n1 [Compound 104, sodium acetyl((3,5-difluoro-4-((7-methoxy-2-oxo-2,3-dihydro-1H-imidazo[4,5-c][1,8]naphthyridin-1-yl)methyl)phenyl)sulfonyl)amide] | 3400 | 72 | 8.9 | 11 |  |
| COc1ccc2c(ncc3nc(C4CNC4)n(Cc4ccc(S(N)(=O)=O)c(F)c4)c32)n1 [Compound 85, 4-((2-(azetidin-3-yl)-7-methoxy-1H-imidazo[4,5-c][1,8]naphthyridin-1-yl)methyl)-2-fluorobenzenesulfonamide] | 900 | 79 | 2 | 5.2 |  |
| COc1ccc2c(ncc3ncn(Cc4ccc(S(N)(=O)=O)cc4C(F)(F)F)c32)n1 [Compound 67, 4-((7-methoxy-1H-imidazo[4,5-c][1,8]naphthyridin-1-yl)methyl)-3-(trifluoromethyl)benzenesulfonamide] | 1300 | 80 |  | 8.6 | 2.3 |
| COC(=O)Cc1nc2cnc3nc(OC)ccc3c2n1Cc1ccc(S(N)(=O)=O)c(F)c1 [Compound 83, methyl 2-(1-(3-fluoro-4-sulfamoylbenzyl)-7-methoxy-1H-imidazo[4,5-c][1,8]naphthyridin-2-yl)acetate] | 1200 | 83 | 3.2 | 7.7 |  |
| COc1ccc2c(ncc3ncn(Cc4ccc(S(N)(=O)=O)cc4C#N)c32)n1 [Compound 69, 3-cyano-4-((7-methoxy-1H-imidazo[4,5-c][1,8]naphthyridin-1-yl)methyl)benzenesulfonamide] | 510 | 79 | 0.67 | 2.1 |  |
| COc1ccc2c(ncc3ncn(Cc4ccc(S(N)(=O)=O)c(OC)c4)c32)n1 [Compound 64, 2-methoxy-4-((7-methoxy-1H-imidazo[4,5-c][1,8]naphthyridin-1-yl)methyl)benzenesulfonamide] | 4700 | 68 | 2.8 | 8.9 |  |
| COc1ccc2c(n1)nc(C)c1ncn(Cc3ccc(S(N)(=O)=O)cn3)c12 [Compound 87, 6-((7-methoxy-4-methyl-1H-imidazo[4,5-c][1,8]naphthyridin-1-yl)methyl)pyridine-3-sulfonamide] | 360 | 85 | 1.3 | 4 |  |
| COc1ccc2c(ncc3ncn(Cc4ccc(S(N)(=O)=O)c(OC(F)(F)F)c4)c32)n1 [Compound 66, 4-((7-methoxy-1H-imidazo[4,5-c][1,8]naphthyridin-1-yl)methyl)-2-(trifluoromethoxy)benzenesulfonamide] | 3400 | 71 | 3 | 13 |  |
| COc1ccc2c(ncc3nc(CC(N)=O)n(Cc4ccc(S(N)(=O)=O)c(F)c4)c32)n1 [Compound 84, 2-(1-(3-fluoro-4-sulfamoylbenzyl)-7-methoxy-1H-imidazo[4,5-c][1,8]naphthyridin-2-yl)acetamide] | 2500 | 76 |  | 8.4 | 3.5 |
